Assays:
Format in all cases: biochemical
[1] = target: T1, purified human plasma kallikrein (Homo sapiens, UniProt P03952); experiment: Plasma kallikrein enzyme inhibition assay (chromogenic substrate S-2302), Ki; conditions: substrate S-2302, pH 7.5
T1 construct: purchased Enzyme Research Laboratories
Procedure: The effectiveness of compounds of the present invention as inhibitors of the coagulation Factors XIa, VIIa, IXa, Xa, XIIa, plasma kallikrein, thrombin, chemytrypsin or trypsin can be determined using a relevant purified serine protease, respectively, and an appropriate synthetic substrate. The rate of hydrolysis of the chromogenic or fluorogenic substrate by the relevant serine protease was measured both in the absence and presence of compounds of the present invention. […] A decrease in the rate of absorbance or fluorescence change in the presence of inhibitor is indicative of enzyme inhibition. Such methods are known to one skilled in the art. The results of this assay are expressed as the inhibitory constant, Ki.
Plasma kallikrein determinations were made in 0.1 M sodium phosphate buffer at a pH of 7.5 containing 0.1-0.2 M sodium chloride and 0.5% PEG 8000. Determinations were made using purified human plasma kallikrein (Enzyme Research Laboratories) at a final assay concentration of […] and the synthetic substrate S-2302 (H-(D)-Pro-Phe-Arg-pNA; CHROMOGENIX®) at a concentration of 0.00008-0.0004 M.
Values of Ki were determined by allowing the protease to react with the substrate in the presence of the inhibitor. Reactions were allowed to go for periods of 20-180 minutes (depending on the protease) and the velocities (rate of absorbance or fluorescence change versus time) were measured. The following relationships were used to calculate Ki values: (Vmax*S)/(Km+S) (vo−vs)/vs=I/(Ki*(1+S/Km)) for a competitive inhibitor with one binding site; or vs/vo=A+(B−A)/(1+(IC50/(I)^n)); and Ki=IC50/(1+S/Km) for a competitive inhibitor where: […]

[2] = test system: citrated normal human plasma; experiment: Activated Partial Thromboplastin Time (aPTT) plasma clotting assay; conditions: inhibitor concentration required to increase the clotting time by 1.5 times
Description: The effectiveness of compounds of the present invention as inhibitors of coagulation can be determined using a standard or modified clotting assay. An increase in the plasma clotting time in the presence of inhibitor is indicative of anticoagulation. Relative clotting time is the clotting time in the presence of an inhibitor divided by the clotting time in the absence of an inhibitor. The results of this assay may be expressed as IC1.5× or IC2×, the inhibitor concentration required to increase the clotting time by 1.5 times or 2 times, respectively, relative to the clotting time in the absence of the inhibitor. The IC1.5× or IC2× is found by linear interpolation from relative clotting time versus inhibitor concentration plots using inhibitor concentrations that span the IC1.5× or IC2×.
Clotting times are determined using citrated normal human plasma as well as plasma obtained from a number of laboratory animal species (e.g., rat, or rabbit). A compound is diluted into plasma beginning with a 10 mM DMSO stock solution. The final concentration of DMSO is less than 2%. Plasma clotting assays are performed in an automated coagulation analyzer (Sysmex, Dade-Behring, Illinois). Similarly, clotting times can be determined from laboratory animal species or humans dosed with compounds of the invention.
Activated Partial Thromboplastin Time (aPTT) is determined using ACTIN® FSL (Dade-Behring, Illinois) following the directions in the package insert. Plasma (0.05 mL) is warmed to 37° C. for 1 minute. ACTIN® FSL (0.05 mL) is added to the plasma and incubated for an additional 2 to 5 minutes. Calcium chloride (25 mM, 0.05 mL) is added to the reaction to initiate coagulation. The clotting time is the time in seconds from the moment calcium chloride is added until a clot is detected.

[3] = target: T2, purified human Factor XIa (Homo sapiens, UniProt P03951); experiment: Factor XIa enzyme inhibition assay (chromogenic substrate S-2366), Ki; conditions: substrate S-2366, pH 7.4
T2 construct: purchased Haematologic Technologies
T2 sequence (P03951 388-625 limits assumed): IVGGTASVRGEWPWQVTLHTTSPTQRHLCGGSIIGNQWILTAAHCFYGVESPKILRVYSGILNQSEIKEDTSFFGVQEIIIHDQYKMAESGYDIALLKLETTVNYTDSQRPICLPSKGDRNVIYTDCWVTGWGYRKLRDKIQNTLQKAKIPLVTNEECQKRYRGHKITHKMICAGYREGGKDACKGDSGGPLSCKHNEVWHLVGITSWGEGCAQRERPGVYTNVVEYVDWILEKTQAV
T2 sequence (P03951 19-387 partner limits assumed): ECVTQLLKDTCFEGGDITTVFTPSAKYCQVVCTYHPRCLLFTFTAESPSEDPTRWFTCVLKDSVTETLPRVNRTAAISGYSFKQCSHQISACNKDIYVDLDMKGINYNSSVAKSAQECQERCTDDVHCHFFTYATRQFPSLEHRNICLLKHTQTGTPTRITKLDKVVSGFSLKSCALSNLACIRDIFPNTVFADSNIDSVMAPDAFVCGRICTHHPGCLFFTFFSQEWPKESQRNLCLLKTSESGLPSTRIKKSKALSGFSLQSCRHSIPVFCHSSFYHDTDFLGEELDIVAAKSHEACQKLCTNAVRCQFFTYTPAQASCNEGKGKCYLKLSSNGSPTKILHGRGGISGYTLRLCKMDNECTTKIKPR
Summary of the method: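 Purified human Factor XIa ([…] final) with chromogenic substrate S-2366 (0.0002-0.001 M) in 50 mM HEPES pH 7.4, 145 mM NaCl, 5 mM KCl, 0.1% PEG 8000. Velocities measured over 20-180 minutes with and without inhibitor; Ki derived assuming competitive inhibition, e.g. Ki=IC50/(1+S/Km).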

T1 sequence (P03952 391-638 limits assumed): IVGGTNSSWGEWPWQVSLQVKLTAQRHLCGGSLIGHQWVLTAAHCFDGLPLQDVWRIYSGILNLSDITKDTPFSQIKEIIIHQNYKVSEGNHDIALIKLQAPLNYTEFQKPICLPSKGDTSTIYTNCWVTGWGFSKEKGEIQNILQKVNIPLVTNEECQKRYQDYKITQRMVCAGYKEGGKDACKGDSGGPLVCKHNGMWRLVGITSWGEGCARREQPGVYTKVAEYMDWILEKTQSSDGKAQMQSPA
T1 sequence (P03952 20-390 partner limits assumed): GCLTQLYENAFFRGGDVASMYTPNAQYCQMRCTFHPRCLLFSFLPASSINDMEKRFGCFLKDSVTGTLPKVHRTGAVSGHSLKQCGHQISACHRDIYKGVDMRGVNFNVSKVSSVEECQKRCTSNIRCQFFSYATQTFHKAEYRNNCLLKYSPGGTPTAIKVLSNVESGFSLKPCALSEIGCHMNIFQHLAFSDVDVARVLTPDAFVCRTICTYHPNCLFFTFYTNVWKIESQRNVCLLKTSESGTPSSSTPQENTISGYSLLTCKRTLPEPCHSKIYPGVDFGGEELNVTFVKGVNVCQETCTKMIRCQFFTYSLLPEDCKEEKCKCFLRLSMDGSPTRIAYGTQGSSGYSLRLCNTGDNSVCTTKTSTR

Row | Ki [1] | Ki [3] | SMILES | aPTT (IC1.5×) [2]
1 | 239 nM | 3.1 nM | O=C(O)c1ccc(NC(=O)[C@H](Cc2ccccc2)n2cnc(-c3cc(Cl)ccc3-n3cc(C(F)(F)F)nn3)cc2=O)cc1 [Example 14, (S)-4-(2-(4-(5-chloro-2-(4-(trifluoromethyl)-1H-1,2,3-triazol-1-yl)phenyl)-6-oxopyrimidin-1(6H)-yl)-3-phenylpropanamido)benzoic Acid] | 1.85 µM
2 | 189 nM | 2.5 nM | O=C(O)c1ccc(NC(=O)[C@H](Cc2ccccc2)n2cnc(-c3cc(Cl)ccc3-n3cc(Cl)nn3)cc2=O)cc1 [Example 15, (S)-4-(2-(4-(5-chloro-2-(4-chloro-1H-1,2,3-triazol-1-yl)phenyl)-6-oxopyrimidin-1(6H)-yl)-3-phenylpropanamido)benzoic Acid] | 1.74 µM
3 | 166 nM | 16 nM | O=C(Nc1ccc2cn[nH]c2c1)[C@H](Cc1ccccc1)n1cnc(-c2cc(Cl)ccc2-n2cc(Cl)nn2)cc1=O [Example 17, (S)-2-(4-(5-chloro-2-(4-chloro-1H-1,2,3-triazol-1-yl)phenyl)-6-oxopyrimidin-1(6H)-yl)-N-(1H-indazol-6-yl)-3-phenylpropanamide] | 17.6 µM
4 | 1870 nM | 199 nM | Cc1c(CC(C(=O)Nc2ccc(C(=O)O)cc2)N2CCC(c3c(F)ccc(Cl)c3F)=CC2=O)ccc2cn[nH]c12 (stereo not drawn) [Example 135, 4-(2-(4-(3-chloro-2,6-difluorophenyl)-6-oxo-3,6-dihydropyridin-1(2H)-yl)-3-(7-methyl-1H-indazol-6-yl)propanamido)benzoic Acid] | 1.74 µM
